In the supplement of paper PMC10307832:

How the values were obtained:
Experiment in all cases: relative viability (nuclei count vs DMSO), 5 days (fraction); higher = more cells survive
[1] = compound: C1CN(CCC1C(C2=CC3=C(C=C2)OCO3)(C4=CC5=C(C=C4)OCO5)O)C(=O)OC6=CC=C(C=C6)[N+](=O)[O-] [JZL-184] + COc1cc2c(Oc3ccc(NC(=O)C4(C(=O)Nc5ccc(F)cc5)CC4)cc3F)ccnc2cc1OCCCN1CCOCC1 [Foretinib] (partner 0.25 µM)
How it was run: (§1)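 Each reported value is a median over duplicate plates. It expresses relative viability: treated-well nuclei count divided by vehicle-well nuclei count. Lung cancer cell lines in 1536-well plates were dosed by pin tool a day after seeding, alone with one drug or with a fixed anchor-drug dose plus five library-drug doses (not always all listed) in √10 steps, and nuclei were counted after 5 days.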

[2] = compound: C1CN(CCC1C(C2=CC3=C(C=C2)OCO3)(C4=CC5=C(C=C4)OCO5)O)C(=O)OC6=CC=C(C=C6)[N+](=O)[O-] [JZL-184] + Nc1ncn([C@H]2C[C@H](O)[C@@H](CO)O2)c(=O)n1 [Decitabine] (partner 2 µM)
How it was run: as §1

[3] = compound: C1CN(CCC1C(C2=CC3=C(C=C2)OCO3)(C4=CC5=C(C=C4)OCO5)O)C(=O)OC6=CC=C(C=C6)[N+](=O)[O-] [JZL-184] + Cc1nc(NC(=O)N2CCC[C@H]2C(N)=O)sc1-c1ccnc(C(C)(C)C(F)(F)F)c1 [Alpelisib] (partner 2 µM)
How it was run: as §1

[4] = compound: C1CN(CCC1C(C2=CC3=C(C=C2)OCO3)(C4=CC5=C(C=C4)OCO5)O)C(=O)OC6=CC=C(C=C6)[N+](=O)[O-] [JZL-184] + COc1cccc2cc(-c3nc([C@H]4CC[C@H](C(=O)O)CC4)n4ncnc(N)c34)[nH]c12 [OSI-027] (partner 0.5 µM)
How it was run: as §1

[5] = compound: C1CN(CCC1C(C2=CC3=C(C=C2)OCO3)(C4=CC5=C(C=C4)OCO5)O)C(=O)OC6=CC=C(C=C6)[N+](=O)[O-] [JZL-184] + CCNC(=O)c1noc(-c2cc(C(C)C)c(O)cc2O)c1-c1ccc(CN2CCOCC2)cc1 [Luminespib] (partner 0.01 µM)
How it was run: as §1

Row | Cell Line | relative viability ([1]; first compound 0.04 µM) | relative viability ([1]; first compound 0.4 µM) | relative viability ([1]; first compound 1.265 µM) | relative viability ([1]; first compound 4 µM) | relative viability ([2]; first compound 0.04 µM) | relative viability ([2]; first compound 0.4 µM) | relative viability ([2]; first compound 1.265 µM) | relative viability ([2]; first compound 4 µM) | relative viability ([3]; first compound 0.04 µM) | relative viability ([3]; first compound 0.4 µM) | relative viability ([3]; first compound 1.265 µM) | relative viability ([3]; first compound 4 µM) | relative viability ([4]; first compound 0.04 µM) | relative viability ([4]; first compound 0.4 µM) | relative viability ([4]; first compound 1.265 µM) | relative viability ([4]; first compound 4 µM) | relative viability ([5]; first compound 0.04 µM) | relative viability ([5]; first compound 0.4 µM) | relative viability ([5]; first compound 1.265 µM) | relative viability ([5]; first compound 4 µM)
1 | NCI-H1355 | 1.06 | 0.936 | 1.01 | 0.929 | 0.349 | 0.34 | 0.36 | 0.347 | 0.774 | 0.826 | 0.828 | 0.81 | 0.393 | 0.421 | 0.494 | 0.386 | 0.713 | 0.705 | 0.828 | 0.69
2 | NCI-H1944 | 0.893 | 0.906 | 0.938 | 0.886 | 0.451 | 0.416 | 0.407 | 0.391 | 0.798 | 0.869 | 0.842 | 0.804 | 0.421 | 0.397 | 0.448 | 0.412 | 0.615 | 0.682 | 0.766 | 0.754
3 | NCI-H2023 | 1.01 | 0.874 | 0.978 | 0.79 | 0.254 | 0.225 | 0.175 | 0.213 | 0.654 | 0.593 | 0.568 | 0.593 | 0.407 | 0.381 | 0.405 | 0.317 | 0.958 | 0.624 | 0.918 | 0.575
4 | NCI-H1395 | 0.918 | 0.972 | 0.965 | 0.856 | 0.756 | 0.656 | 0.792 | 0.64 | 0.993 | 1.01 | 1.1 | 1.04 | 0.623 | 0.519 | 0.69 | 0.581 | 0.63 | 0.788 | 0.675 | 0.738
5 | NCI-H2087 | 1.01 | 1.03 | 1.17 | 1.19 | 0.271 | 0.301 | 0.415 | 0.237 | 1.11 | 1.02 | 1.11 | 1.01 | 0.519 | 0.514 | 0.579 | 0.436 | 0.167 | 0.134 | 0.157 | 0.209
6 | NCI-H838 | 1.04 | 1.04 | 1.14 | 0.901 | 0.551 | 0.475 | 0.465 | 0.467 | 1.08 | 1.09 | 1.03 | 0.957 | 0.434 | 0.368 | 0.441 | 0.389 | 0.287 | 0.281 | 0.274 | 0.258
7 | NCI-H1793 | 0.63 | 0.84 | 0.865 | 0.583 | 0.533 | 0.441 | 0.507 | 0.462 | 0.689 | 0.706 | 0.77 | 0.691 | 0.26 | 0.263 | 0.319 | 0.259 | 0.162 | 0.165 | 0.153 | 0.156
8 | LC-2-ad | 1.13 | 0.847 | 0.886 | 0.955 | 0.687 | 0.718 | 0.887 | 0.787 | 0.858 | 0.822 | 0.95 | 0.839 | 0.92 | 0.926 | 0.907 | 0.734 | 1.27 | 0.891 | 1.11 | 1.03
9 | LOU-NH91 | 1.02 | 0.9 | 1.03 | 0.939 | 0.814 | 0.837 | 0.863 | 0.749 | 0.778 | 0.728 | 0.745 | 0.711 | 0.742 | 0.684 | 0.788 | 0.712 | 0.26 | 0.322 | 0.32 | 0.387
10 | NCI-H1734 | 0.982 | 0.743 | 0.957 | 0.771 | 0.536 | 0.494 | 0.512 | 0.501 | 0.658 | 0.545 | 0.714 | 0.642 | 0.621 | 0.615 | 0.718 | 0.594 | 0.207 | 0.206 | 0.185 | 0.222
11 | NCI-H520 | 0.893 | 0.784 | 0.831 | 0.771 | 0.546 | 0.545 | 0.503 | 0.477 | 1.02 | 0.965 | 1.02 | 0.897 | 0.233 | 0.229 | 0.257 | 0.213 | 0.222 | 0.226 | 0.239 | 0.209
12 | UMC-11 | 1.09 | 0.883 | 1.11 | 1.09 | 0.738 | 0.521 | 0.616 | 0.733 | 1.39 | 0.904 | 0.924 | 0.96 | 0.612 | 0.461 | 0.499 | 0.457 | 1.26 | 0.992 | 1.05 | 1.04
13 | NCI-H596 | 0.879 | 0.719 | 0.968 | 0.801 | 1.1 | 0.96 | 1.01 | 0.984 | 0.501 | 0.487 | 0.553 | 0.37 | 0.749 | 0.591 | 0.71 | 0.696 | 1.23 | 1.13 | 0.996 | 1.09
14 | NCI-H1755 | 0.989 | 0.917 | 0.933 | 0.919 | 0.751 | 0.701 | 0.71 | 0.704 | 0.942 | 0.866 | 0.943 | 0.885 | 0.672 | 0.699 | 0.709 | 0.745 | 0.598 | 0.418 | 0.26 | 0.405
15 | SK-LU-1 | 0.909 | 0.77 | 0.919 | 0.722 | 0.673 | 0.584 | 0.705 | 0.698 | 1.51 | 0.931 | 1.3 | 1.06 | 0.405 | 0.341 | 0.423 | 0.358 | 0.312 | 0.201 | 0.215 | 0.2
